Data: patent US20080058411A1, “Methods For Treating Resistant Or Refractory Tumors” (GPC Biotech AG, priority 2004, published 2008)
Like-named read-outs stand apart in the source and are kept apart here.

Tests used:
[1] = tested on: NCI-Adr resistant subline; assay: SRB cytotoxicity assay, P-glycoprotein expressing NCI-Adr resistant subline, with and without verapamil; format: cell-based; details: for IC50: 48 hours, SRB; for RR (relative resistance) NCI-Adr resistant −verapamil vs +verapamil: ratio of the means of the resistant cells compared to the sensitive cells
Procedure: (§5) Briefly, cells were plated in 96 well dishes 24 hours prior to compound addition. Where noted, they were exposed to verapamil for 4 hours prior to compound addition and then throughout the treatment period (48 hours). The assay was terminated with the addition of cold TCA to a final concentration of 10% and the plates were incubated for one hour at 4° C. The plates were then washed 5 times with water and 100 μl of a Sulforhodamine B solution (4%) was added to each well. The plate was then incubated for 10 minutes at room temperature before removal of unbound dye by washing with 1% acetic acid. The bound dye was solubilized with 10 mM Trizma base and the absorbance read at OD570.

1A9 cells = assay: SRB cytotoxicity assay, parental paclitaxel-sensitive 1A9 cells; format: cell-based, human; details: mean +/- SD, number of experiments in brackets, read-out: IC50 1A9 ("non-resistant")
Excerpt: (§1) The tubulin mutated, paclitaxel-resistant human ovarian carcinoma cell line 1A9-PTX10 and its parental paclitaxel-sensitive cell line 1A9 were derived from the A2780 human ovarian carcinoma cell line (J Biol Chem (1997) 272, 17118-17124).

1A9-PTX10 cells = assay: SRB cytotoxicity assay, tubulin mutated paclitaxel-resistant 1A9-PTX10 cells; format: cell-based, human; details: for IC50: 48 hours exposure, SRB, mean +/- SD, number of experiments in brackets; for RR (relative resistance) 1A9-PTX10 vs 1A9: ratio of the means of the resistant cells compared to the sensitive cells
Excerpt: as §1

P-gp = P-gp (Homo sapiens, UniProt P08183); details: more potent than cyclosporine; cited from earlier work
Chain of P-gp (P08183 whole entry): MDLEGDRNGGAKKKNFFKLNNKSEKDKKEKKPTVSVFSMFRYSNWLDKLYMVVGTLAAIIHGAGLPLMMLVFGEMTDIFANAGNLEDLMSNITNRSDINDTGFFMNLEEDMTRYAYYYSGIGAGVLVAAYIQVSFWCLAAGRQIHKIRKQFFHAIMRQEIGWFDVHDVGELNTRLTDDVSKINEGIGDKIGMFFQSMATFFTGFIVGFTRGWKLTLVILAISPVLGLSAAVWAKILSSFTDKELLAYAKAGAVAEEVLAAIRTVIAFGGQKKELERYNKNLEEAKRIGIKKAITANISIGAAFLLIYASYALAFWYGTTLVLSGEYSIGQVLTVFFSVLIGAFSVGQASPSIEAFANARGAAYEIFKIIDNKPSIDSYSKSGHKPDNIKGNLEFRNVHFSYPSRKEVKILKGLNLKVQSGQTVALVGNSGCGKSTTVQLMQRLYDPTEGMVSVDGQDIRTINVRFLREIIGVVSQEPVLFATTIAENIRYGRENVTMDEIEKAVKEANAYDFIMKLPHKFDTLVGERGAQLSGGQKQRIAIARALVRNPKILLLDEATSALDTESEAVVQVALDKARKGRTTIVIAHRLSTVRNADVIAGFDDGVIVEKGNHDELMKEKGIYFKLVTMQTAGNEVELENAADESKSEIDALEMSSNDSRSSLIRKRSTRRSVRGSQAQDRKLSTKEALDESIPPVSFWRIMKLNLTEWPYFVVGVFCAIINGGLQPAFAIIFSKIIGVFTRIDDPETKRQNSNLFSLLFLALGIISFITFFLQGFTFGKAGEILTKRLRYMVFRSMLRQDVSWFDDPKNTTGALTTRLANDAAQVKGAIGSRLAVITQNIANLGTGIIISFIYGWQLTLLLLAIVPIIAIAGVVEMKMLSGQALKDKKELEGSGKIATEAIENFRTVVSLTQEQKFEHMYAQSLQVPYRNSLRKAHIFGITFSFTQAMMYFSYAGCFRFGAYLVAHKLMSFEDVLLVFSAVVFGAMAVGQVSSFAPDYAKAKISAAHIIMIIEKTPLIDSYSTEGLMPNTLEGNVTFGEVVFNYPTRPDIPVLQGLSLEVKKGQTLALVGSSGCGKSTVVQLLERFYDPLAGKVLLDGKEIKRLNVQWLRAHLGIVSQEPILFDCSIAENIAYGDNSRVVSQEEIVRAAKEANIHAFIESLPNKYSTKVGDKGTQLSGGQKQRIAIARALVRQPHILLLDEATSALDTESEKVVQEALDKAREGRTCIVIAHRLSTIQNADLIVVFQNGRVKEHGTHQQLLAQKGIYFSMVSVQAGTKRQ

CEM/C2 cells = assay: Calcein AM viability assay (flow cytometry), camptothecin resistant CEM/C2 cells; format: cell-based, human; details: for IC50: 48 hours, Calcein AM; for RR (relative resistance) CEM/C2 vs CEM: atypical multi-drug resistance and mutant topoisomerase I
Procedure: (§2) The Camptothecin resistant CEM/C2 cells were derived from the T lymphoblastoid leukemia cell line CCRF/CEM by selection in the presence of Camptohecin in vitro (Kapoor et al., 1995. Oncology Research 7; 83-95, ATCC
(§3) The cells were plated in T-25 flasks in the presence or absence of compound and incubated for 48 hours before termination of the assay. Cells were washed twice with PBS and incubated in 200 μl of a solution of Calcein AM (0.3 nM)/PBS for 90 minutes at 37° C. The cells were washed once with PBS before determining fluorescent units on a FACS can flow cytometer.

MCF-7 cells = assay: SRB cytotoxicity assay, parental MCF-7 cells; format: cell-based; details: read-out: IC50 MCF7 ("non-resistant")
Excerpt: (§4) The etoposide-resistant breast cancer cell line MCF-7/VP was used (Schneider et al, Cancer Res, 54, 152). […] ABCC1; Schneider et al, Cancer Res, 54, 152; Perez-Soler et al, Int J Cancer, 71,35). The parental cell line, MCF-7, was used as a control.

A129 cells = assay: SRB cytotoxicity assay, parental A129 cells; format: cell-based, human; details: 48 hours, read-out: IC50 A129 ("non-resistant")
Procedure: (§6) The P-glycoprotein expressing NCI-Adr resistant subline (Vickers et al., 1989. Mol Endocrinology 3 (1):157-164) was used. […] Briefly, cells were plated in 96 well dishes 24 hours prior to compound addition. Where noted, they were exposed to verapamil for 4 hours prior to compound addition and then throughout the treatment period (48 hours). The assay was terminated with the addition of cold TCA to a final concentration of 10% and the plates were incubated for one hour at 4° C. The plates were then washed 5 times with water and 100 μl of a Sulforhodamine B solution (4%) was added to each well. The plate was then incubated for 10 minutes at room temperature before removal of unbound dye by washing with 1% acetic acid. The bound dye was solubilized with 10 mM Trizma base and the absorbance read at OD570.
(§7) The parental non-mutated cell line A 129 was used as control.
(§8) Cytotoxicty was measured using the SRB assay according to Shekan et al. as described above in Example 1A.

A129 cp80 cells = assay: SRB cytotoxicity assay, cisplatin-resistant A129 cp80 cells; format: cell-based, human; details: for IC50: 48 hours, SRB
Procedure: as §6, §7, §8

HT29/MIT cells = assay: SRB cytotoxicity assay, mitoxantrone-resistant HT29/MIT cells (BCRP up-regulated); details: for RR (relative resistance) HT-29/MIT vs HT-29: mean +/- SD; for IC50: read-out: IC50 HT-29/MIT ("resistant")
Procedure: as §5
(§9) The mitoxantrone-resistant colon carcinoma cell line HT29/MIT was used (Perego et al, Cancer Res, 61, 6034). […] The parental cell line, HT29, was used as a control.

MCF-7/VP cells = assay: SRB cytotoxicity assay, etoposide-resistant MCF-7/VP cells (MRP1 up-regulated); format: cell-based; details: for IC50: 48 hours, SRB; for RR (relative resistance) MCF7/VP vs MCF7: mean +/- SD
Excerpt: as §4

HT29 cells = assay: SRB cytotoxicity assay, parental HT29 cells; format: cell-based; details: read-out: IC50 HT-29 ("non-resistant")
Procedure: as §5, §9

CCRF/CEM cells = assay: Calcein AM viability assay (flow cytometry), parental CEM cells; format: cell-based, human; details: 48 hours, read-out: IC50 CEM ("non-resistant")
Procedure: as §2, §3

cells in S-phase = details: in vitro; cited from earlier work
[2] = Homo sapiens, NCI/ADR-RES, no verapamil, read-out: IC50 NCI-Adr resistant −verapamil ("resistant")
[3] = Homo sapiens, NCI/ADR-RES, verapamil 12.5 μg/ml, read-out: IC50 NCI-Adr resistant +verapamil ("non-resistant")
[4] = Homo sapiens, 1A9, 48 hours exposure
[5] = no verapamil, read-out: IC50 NCI-Adr resistant −verapamil ("resistant")
[6] = verapamil 12.5 μg/ml, read-out: IC50 NCI-Adr resistant +verapamil ("non-resistant")
[7] = read-out: IC50 MCF7/VP ("resistant")

CC(=O)O[C@@]12CO[C@@H]1C[C@H](O)[C@@]1(C)C(=O)[C@H](O)C3=C(C)[C@@H](OC(=O)[C@H](O)[C@@H](NC(=O)OC(C)(C)C)c4ccccc4)C[C@@](O)([C@@H](OC(=O)c4ccccc4)[C@H]21)C3(C)C [Taxotere, N-debenzoyl-N-tert-butoxycarbonyl-10-deacetyl paclitaxel]
IC50 [1, 2]: 0.62 µM
IC50 [1, 3]: 0.019 µM
IC50 (1A9 cells; [4]): 0.002 µM
IC50 (1A9-PTX10 cells; Homo sapiens, 1A9/ptx-10): 0.212 µM

C/C=C/C[C@@H](C)C(=O)[C@H]1C(=O)N[C@@H](C(C)C)C(=O)N(C)CC(=O)N(C)[C@@H](CC(C)C)C(=O)N[C@@H](C(C)C)C(=O)N(C)[C@@H](CC(C)C)C(=O)N[C@@H](C)C(=O)N[C@H](C)C(=O)N(C)[C@@H](CC(C)C)C(=O)N(C)[C@@H](CC(C)C)C(=O)N(C)[C@@H](C(C)C)C(=O)N1C [PSC-833]
P-gp inhibitor potency relative to cyclosporine (P-gp): 10 times

N.NC1CCCCC1.[Cl-].[Cl-].[Pt+2] [JM118]
IC50 (CEM/C2 cells): 0.5 µM
RR (relative resistance) CEM/C2 vs CEM (CEM/C2 cells): 1.18
IC50 (MCF-7 cells; 48 hours): 1.2 µM
IC50 (A129 cells): 0.17 µM
IC50 [1, 5]: 2.1 µM
RR (relative resistance) NCI-Adr resistant −verapamil vs +verapamil [1]: 1.1
IC50 [1, 6]: 2.3 µM
IC50 (A129 cp80 cells): 0.43 µM
RR (relative resistance) A129 cp80 vs A129 (A129 cp80 cells; cisplatin resistance mechanism): 2.6
RR (relative resistance) HT-29/MIT vs HT-29 (HT29/MIT cells): 1.3 +/− 0.1
IC50 (HT29/MIT cells; 48 hours, SRB): 6 µM
IC50 (MCF-7/VP cells; [7]): 1.3 µM
RR (relative resistance) MCF7/VP vs MCF7 (MCF-7/VP cells): 1.1 +/− 0.1
IC50 (HT29 cells; 48 hours): 4.5 µM
IC50 (1A9 cells; 48 hours exposure): 0.5 µM
IC50 (1A9-PTX10 cells): 1.5 µM
RR (relative resistance) 1A9-PTX10 vs 1A9 (1A9-PTX10 cells): 3.1
IC50 (CCRF/CEM cells): 0.43 µM

O=C1c2c(O)ccc(O)c2C(=O)c2c(NCCNCCO)ccc(NCCNCCO)c21 [Mitoxantrone, mitoxantrone]
IC50 (HT29/MIT cells; Homo sapiens, HT-29, 48 h): 198 µM
RR (relative resistance) HT-29/MIT vs HT-29 (HT29/MIT cells): 175 +/− 67
IC50 (HT29 cells; Homo sapiens, HT-29, 48 hours): 1.3 µM

CC[C@@]1(O)C(=O)OCc2c1cc1n(c2=O)Cc2cc3ccccc3nc2-1 [Camptothecin, camptothecin]
IC50 (CEM/C2 cells; Homo sapiens, CEM/C2): 6.75 µM
RR (relative resistance) CEM/C2 vs CEM (CEM/C2 cells): 1500
sensitivity to camptothecin of cells in S-phase relative to cells in G1 or G2 (cells in S-phase): 100-1000 times
IC50 (CCRF/CEM cells; Homo sapiens, CCRF-CEM): 0.005 µM

CC(=O)O[C@H]1C(=O)[C@@]2(C)[C@H]([C@H](OC(=O)c3ccccc3)[C@]3(O)C[C@H](OC(=O)[C@H](O)[C@@H](NC(=O)c4ccccc4)c4ccccc4)C(C)=C1C3(C)C)[C@]1(OC(C)=O)CO[C@@H]1C[C@@H]2O [Paclitaxel, paclitaxel]
IC50 [1, 2]: 1.42 µM
IC50 [1, 3]: 0.031 µM
RR (relative resistance) NCI-Adr resistant −verapamil vs +verapamil [1]: 46
IC50 (1A9 cells; [4]): 0.005 µM
IC50 (1A9-PTX10 cells; Homo sapiens, 1A9/ptx-10): 0.213 µM
RR (relative resistance) 1A9-PTX10 vs 1A9 (1A9-PTX10 cells): 42.6

COc1cc([C@@H]2c3cc4c(cc3[C@@H](O[C@@H]3O[C@@H]5CO[C@@H](C)O[C@H]5[C@H](O)[C@H]3O)[C@H]3COC(=O)[C@H]23)OCO4)cc(OC)c1O [Etoposide, etoposide]
IC50 (MCF-7 cells; Homo sapiens, MCF7, 48 hours): 7.2 µM
IC50 (MCF-7/VP cells; Homo sapiens, MCF7-VP): > 100 µM
RR (relative resistance) MCF7/VP vs MCF7 (MCF-7/VP cells): >20
relative resistance in individual experiments, MCF-7/VP vs MCF-7 (MCF-7/VP cells; range over individual experiments): > 20 fold

N.N.[Cl][Pt][Cl] [Cisplatin, cisplatin]
IC50 (CEM/C2 cells): 2.2 µM
IC50 (MCF-7 cells; 48 hours): 28.7 µM
IC50 (A129 cells): 0.13 µM
IC50 [1, 5]: 13.2 µM
IC50 [1, 6]: 13 µM
IC50 (A129 cp80 cells): 11.6 µM
IC50 (MCF-7/VP cells; [7]): 31.2 µM
IC50 (1A9 cells; 48 hours exposure): 8.4 µM
IC50 (1A9-PTX10 cells): 13.9 µM
IC50 (CCRF/CEM cells): 2.6 µM

COc1cccc2c1C(=O)c1c(O)c3c(c(O)c1C2=O)C[C@@](O)(C(=O)CO)C[C@@H]3O[C@H]1C[C@H](N)[C@H](O)[C@H](C)O1 [Adriamycin, adriamycin]
IC50 [1, 2]: 0.65 µM
IC50 [1, 3]: 75 µM
relative resistance, NCI-Adr resistant subline without vs with verapamil ([1]; individual experiments): 115 fold
RR (relative resistance) NCI-Adr resistant −verapamil vs +verapamil [1]: 115
